Results from ChEMBL document CHEMBL4152365, “Discovery of DS-6930, a potent selective PPARγ modulator. Part I: Lead identification” (Bioorg Med Chem, 2018).
pEC50: −log10 of the molar value. In brackets after ≈: the same amount, converted by molar mass. Each block holds one molecule with its values, some of them ahead of it. Activity calls are given as the source filed them. The calls are words filed in the database; no cut-off is given here.

Legend:
Mus musculus [1] = test: Toxicity in hyperglycemic KK/Ta mouse assessed as body weight gain at 30 mg/kg/day, po administered through diet for 3 days relative to control; format: organism-based; details: in vivo, 72 h
[2] = molecular target: T1, Peroxisome proliferator-activated receptor alpha (Homo sapiens) (UniProt Q07869); test: Agonist activity at recombinant human GAL4-DBD fused PPARalpha LBD expressed in COS7 cells at 10 uM after 24 hrs by luciferase reporter gene assay relative to 2-(4-tert-Butylphenoxy)-3-[4-[2-[(4-pyridin-2-ylbenzoyl)amino]ethoxy]; format: cell-based
T1 sequence (whole entry): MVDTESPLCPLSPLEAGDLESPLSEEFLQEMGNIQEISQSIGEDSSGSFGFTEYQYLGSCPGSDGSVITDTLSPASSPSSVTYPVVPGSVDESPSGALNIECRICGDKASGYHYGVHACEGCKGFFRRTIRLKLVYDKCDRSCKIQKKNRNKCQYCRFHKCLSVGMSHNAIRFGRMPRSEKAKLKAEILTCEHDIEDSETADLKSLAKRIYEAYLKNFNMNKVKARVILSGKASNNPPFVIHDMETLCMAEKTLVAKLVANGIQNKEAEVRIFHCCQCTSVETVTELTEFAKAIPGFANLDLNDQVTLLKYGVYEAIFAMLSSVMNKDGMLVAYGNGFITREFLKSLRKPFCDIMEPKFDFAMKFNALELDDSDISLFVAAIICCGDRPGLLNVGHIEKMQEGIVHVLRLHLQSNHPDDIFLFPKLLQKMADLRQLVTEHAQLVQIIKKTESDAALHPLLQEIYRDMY

[3] = Plasma concentration in hyperglycemic KK/Ta mouse at 30 mg/kg/day, po administered through diet for 3 days measured on day 3 post last dose; format: ADME, organism-based
[4] = molecular target: T2, Peroxisome proliferator-activated receptor alpha (Homo sapiens, UniProt Q07869); test: Agonist activity at recombinant human GAL4-DBD fused PPARalpha LBD expressed in COS7 cells after 24 hrs by luciferase reporter gene assay; format: cell-based
T2 sequence (Q07869 whole entry): T1 sequence (whole entry)

[5] = Aqueous thermodynamic solubility of the compound in pH 6.8 solution up to 4 hrs by HPLC-UV analysis; format: physicochemical; details: read-out: Therm_solubility
[6] = Metabolic stability in human liver microsomes after 0.5 hrs; format: ADME, microsome; details: read-out: Stability
[7] = molecular target: T3, Peroxisome proliferator-activated receptor gamma (Homo sapiens, UniProt P37231); test: Agonist activity at recombinant human GAL4-DBD fused PPARgamma LBD expressed in COS7 cells after 24 hrs by luciferase reporter gene assay; format: cell-based
T3 sequence (P37231 whole entry): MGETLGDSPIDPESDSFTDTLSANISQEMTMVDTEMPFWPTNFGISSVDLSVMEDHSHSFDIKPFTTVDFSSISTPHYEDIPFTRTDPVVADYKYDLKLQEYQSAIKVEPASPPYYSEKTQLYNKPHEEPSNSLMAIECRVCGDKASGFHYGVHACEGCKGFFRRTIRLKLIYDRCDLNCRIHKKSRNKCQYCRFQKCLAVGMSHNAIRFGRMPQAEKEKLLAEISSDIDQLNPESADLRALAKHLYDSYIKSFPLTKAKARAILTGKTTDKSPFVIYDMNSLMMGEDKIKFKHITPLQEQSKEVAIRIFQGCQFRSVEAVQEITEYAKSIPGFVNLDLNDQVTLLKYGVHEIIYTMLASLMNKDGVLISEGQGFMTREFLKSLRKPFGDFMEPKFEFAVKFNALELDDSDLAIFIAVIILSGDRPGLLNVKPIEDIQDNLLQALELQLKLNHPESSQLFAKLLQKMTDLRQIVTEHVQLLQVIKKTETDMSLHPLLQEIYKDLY

[8] = 1-octanol/PBS distribution co-efficient, log D of the compound at […] at pH 7.4 after 30 mins by HPLC-MS/MS analysis; format: physicochemical
Mus musculus [9] = test: Glucose-lowering effect in hyperglycemic KK/Ta mouse assessed as reduction in plasma glucose level at 30 mg/kg/day, po administered through diet for 3 days relative to control; format: functional; set-up: scale not given: the % may be the effect or the level left
[10] = molecular target: T4, Peroxisome proliferator-activated receptor delta (Homo sapiens) (UniProt Q03181); test: Agonist activity at PPARdelta (unknown origin) at 10 uM
T4 sequence (whole entry): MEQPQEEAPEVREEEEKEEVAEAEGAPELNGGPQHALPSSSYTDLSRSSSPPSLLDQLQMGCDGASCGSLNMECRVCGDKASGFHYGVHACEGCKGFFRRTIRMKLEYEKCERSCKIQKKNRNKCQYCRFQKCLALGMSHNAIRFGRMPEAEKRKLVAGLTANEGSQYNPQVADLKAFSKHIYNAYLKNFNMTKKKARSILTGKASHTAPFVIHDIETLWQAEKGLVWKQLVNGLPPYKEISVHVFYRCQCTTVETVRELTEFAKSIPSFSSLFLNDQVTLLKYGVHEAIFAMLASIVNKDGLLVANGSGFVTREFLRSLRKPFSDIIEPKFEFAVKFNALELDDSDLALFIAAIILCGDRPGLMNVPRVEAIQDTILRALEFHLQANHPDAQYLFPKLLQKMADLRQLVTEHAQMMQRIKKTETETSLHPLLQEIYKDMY

[11] = molecular target: T5, Peroxisome proliferator-activated receptor gamma (Homo sapiens) (UniProt P37231); test: Agonist activity at recombinant human GAL4-DBD fused PPARgamma LBD expressed in COS7 cells at 10 uM after 24 hrs by luciferase reporter gene assay relative to rosiglitazone; format: cell-based
T5 sequence (whole entry): T3 sequence (P37231 whole entry)

Compound: Cn1c(COc2cccc(C(=O)O)c2)nc2ccc(Oc3cccc(OC(F)(F)F)c3)cc21
Activity (Mus musculus [1]): 5.3%
Emax [2]: 17%
concentration at 72 h [3]: 370 ng/mL
pEC50 [4]: < 5.00
solubility thermodynamic at 4 h [5]: 0.9 µg/mL (≈ 1.96 µM)
remaining at 0.5 h [6]: 98%
pEC50 [7]: 6.95
logD at 0.5 h [8]: 3.3
Activity (Mus musculus [9]): 41.9%
Activity [10]: inactive
Emax [11]: 69%

Compound: Cn1c(COc2cccc(C(=O)O)c2)nc2ccc(Oc3ccc(Cl)cc3)cc21
Activity (Mus musculus [1]): 4.1%
Emax [2]: 8%
pEC50 [4]: < 5.00
solubility thermodynamic at 4 h [5]: 2 µg/mL (≈ 4.89 µM)
pEC50 [7]: 6.90
logD at 0.5 h [8]: 2.6
Activity (Mus musculus [9]): 34.4%
Activity [10]: inactive
Emax [11]: 62%

Compound: COc1ccccc1Oc1ccc2nc(COc3cccc(C(=O)O)c3)n(C)c2c1.Cl
Emax [2]: 4%
pEC50 [4]: < 5.00
solubility thermodynamic at 4 h [5]: 12 µg/mL
remaining at 0.5 h [6]: 74%
pEC50 [7]: 6.32
logD at 0.5 h [8]: 1.3
Activity [10]: inactive
Emax [11]: 60%

Compound: Cn1c(COc2cccc(C(=O)O)c2)nc2ccc(Oc3cccc(F)c3)cc21
Activity (Mus musculus [1]): 3.2%
Emax [2]: 22%
concentration at 72 h [3]: 1740 ng/mL
pEC50 [4]: < 5.00
solubility thermodynamic at 4 h [5]: 2.2 µg/mL (≈ 5.61 µM)
remaining at 0.5 h [6]: 98%
pEC50 [7]: 6.70
logD at 0.5 h [8]: 2
Activity (Mus musculus [9]): 52.1%
Activity [10]: inactive
Emax [11]: 75%

Compound: Cl.Cn1c(COc2cccc(C(=O)O)c2)nc2ccc(Oc3ccccc3)cc21
solubility thermodynamic at 4 h [5]: 2 µg/mL
remaining at 0.5 h [6]: 100%
logD at 0.5 h [8]: 1.8
Activity [10]: inactive
Emax [11]: 90%

Compound: COc1cccc(Oc2ccc3nc(COc4cccc(C(=O)O)c4)n(C)c3c2)c1
Emax [2]: 30%
pEC50 [4]: < 5.00
solubility thermodynamic at 4 h [5]: 5.4 µg/mL (≈ 13.4 µM)
remaining at 0.5 h [6]: 68%
pEC50 [7]: 6.63
logD at 0.5 h [8]: 1.8
Activity [10]: inactive
Emax [11]: 92%

Compound: Cn1c(COc2cccc(C(=O)O)c2)nc2ccc(Oc3ccccc3F)cc21
Emax [2]: 21%
pEC50 [4]: < 5.00
solubility thermodynamic at 4 h [5]: 12 µg/mL (≈ 30.6 µM)
pEC50 [7]: 5.84
logD at 0.5 h [8]: 1.7
Activity [10]: inactive
Emax [11]: 125%

Compound: COc1ccc(Oc2ccc3nc(COc4cccc(C(=O)O)c4)n(C)c3c2)cc1
Emax [2]: 7%
pEC50 [4]: < 5.00
solubility thermodynamic at 4 h [5]: 9.3 µg/mL (≈ 23 µM)
remaining at 0.5 h [6]: 100%
pEC50 [7]: 6.51
logD at 0.5 h [8]: 1.8
Activity [10]: inactive
Emax [11]: 71%

Compound: Cn1c(COc2cccc(C(=O)O)c2)nc2ccc(Oc3ccc(F)cc3)cc21
Activity (Mus musculus [1]): 3.4%
Emax [2]: 29%
concentration at 72 h [3]: 320 ng/mL
pEC50 [4]: < 5.00
solubility thermodynamic at 4 h [5]: 19 µg/mL (≈ 48.4 µM)
pEC50 [7]: 6.91
logD at 0.5 h [8]: 2
Activity (Mus musculus [9]): 56.7%
Activity [10]: inactive
Emax [11]: 75%

Compound: Cc1ccc(F)c(Oc2ccc3nc(COc4cccc(C(=O)O)c4)n(C)c3c2)c1
Activity (Mus musculus [1]): 1.6%
Emax [2]: 37%
concentration at 72 h [3]: 120 ng/mL
pEC50 [4]: < 5.00
solubility thermodynamic at 4 h [5]: 11 µg/mL (≈ 27.1 µM)
remaining at 0.5 h [6]: 83%
pEC50 [7]: 6.86
logD at 0.5 h [8]: 2.4
Activity (Mus musculus [9]): 49.4%
Emax [11]: 111%

Second part, led by results:

Emax [2]: 16%
concentration at 72 h [3]: 100 ng/mL
pEC50 [4]: < 5.00
solubility thermodynamic at 4 h [5]: 2.2 µg/mL (≈ 5.66 µM)
remaining at 0.5 h [6]: 62%
pEC50 [7]: 7.25
logD at 0.5 h [8]: 2.4
Activity [10]: inactive
Emax [11]: 80%
Compound: Cc1ccccc1Oc1ccc2nc(COc3cccc(C(=O)O)c3)n(C)c2c1
Activity (Mus musculus [1]): 3.7%
Activity (Mus musculus [9]): 26.9%

Emax [2]: 69%
concentration at 72 h [3]: 190 ng/mL
remaining at 0.5 h [6]: 90%
pEC50 [7]: 7.07
logD at 0.5 h [8]: 2.7
Activity [10]: inactive
Emax [11]: 103%
Compound: Cl.Cn1c(COc2cccc(C(=O)O)c2)nc2ccc(Oc3cccc(Cl)c3)cc21
Activity (Mus musculus [1]): 2.8%
Activity (Mus musculus [9]): 59.6%

Emax [2]: 56%
concentration at 72 h [3]: 90 ng/mL
remaining at 0.5 h [6]: 85%
pEC50 [7]: 7.64
logD at 0.5 h [8]: 2.8
Activity [10]: inactive
Emax [11]: 81%
Compound: Cl.Cn1c(COc2cccc(C(=O)O)c2)nc2ccc(Oc3cccc(C(F)(F)F)c3)cc21
Activity (Mus musculus [1]): 3.8%
Activity (Mus musculus [9]): 45.1%

Emax [2]: 37%
pEC50 [4]: < 5.00
pEC50 [7]: 7.40
logD at 0.5 h [8]: 2.4
Activity [10]: inactive
Emax [11]: 56%
Compound: CCOc1cccc(Oc2ccc3nc(COc4cccc(C(=O)O)c4)n(C)c3c2)c1
Activity (Mus musculus [1]): 3.3%
Activity (Mus musculus [9]): 22%

Emax [2]: 19%
concentration at 72 h [3]: 90 ng/mL
pEC50 [4]: < 5.00
solubility thermodynamic at 4 h [5]: 3.8 µg/mL (≈ 9.78 µM)
remaining at 0.5 h [6]: 69%
pEC50 [7]: 7.10
logD at 0.5 h [8]: 2.3
Activity [10]: inactive
Emax [11]: 76%
Compound: Cc1cccc(Oc2ccc3nc(COc4cccc(C(=O)O)c4)n(C)c3c2)c1
Activity (Mus musculus [1]): 3.2%
Activity (Mus musculus [9]): 56.9%
